Measurements taken from patent US9029337B2, “Modulation of factor 7 expression” (Isis Pharmaceuticals, Inc., priority 2007, dated 2015).
Strand notation (5' to 3'): a small letter for the sugar, then the base; units joined by * are phosphorothioate-linked, units joined directly phosphodiester-linked; [ ] holds rarer units or linkages, { } end groups; capitals alone tell only the bases. e = 2'-O-(2-methoxyethyl) (MOE); [5mC] = 5-methylcytosine; d = 2'-deoxy (DNA)

Assays:
human Factor 7 mRNA [1] = test: Antisense inhibition of human Factor 7 mRNA in HepB3 cells, 50 nM antisense oligonucleotide, lipofectin; assay type: cell-based; settings: for % Inhibition: lipofectin, approximately 24 hours
Procedure, shortened: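 Percent inhibition of Factor 7 mRNA, relative to untreated control, comes from real-time RT-PCR with RIBOGREEN normalization, using primer probe set RTS 2927 in some runs. RNA was taken roughly 24 h after lipofectin delivery of 50 nM oligonucleotide into HepB3 cells.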

human Factor 7 mRNA [2] = test: Dose-dependent antisense inhibition of human Factor 7 in HepB3 cells, lipofectin; assay type: cell-based; settings: approximately 16 hours
Description: Cells were plated at a density of 4,000 cells per well and treated with lipofectin reagent with 3.125 nM, 6.25 nM, 12.5 nM, 25 nM, 50 nM, and 100 nM concentrations of antisense oligonucleotide, as indicated in Table 3. After a treatment period of approximately 16 hours, RNA was isolated from the cells and Factor 7 mRNA levels were measured by real-time RT-PCR, as described herein. Human Factor 7 primer probe set RTS 2927 (forward sequence: […], incorporated herein as SEQ ID NO: 164; reverse sequence: […], incorporated herein as SEQ ID NO: 165; probe sequence: TGGGTGGTCTCCGCGGCCX, incorporated herein as SEQ ID NO: 166) was used to measure mRNA levels. Factor 7 mRNA levels were adjusted according to total RNA content as measured by RIBOGREEN®. Results are presented as percent inhibition of Factor 7, relative to untreated control cells.
Cells were plated at a density of 4,000 cells per well and transfected using lipofectin reagent with 6.25 nM, 12.5 nM, 25.0 nM, 50.0 nM, and 100.0 nM concentrations of antisense oligonucleotide, as indicated in Table 7. After a treatment period of approximately 16 hours, RNA was isolated from the cells and Factor 7 mRNA levels were measured by real-time RT-PCR, as described herein. Human Factor 7 primer probe set RTS 2927 was used to measure mRNA levels. Factor 7 mRNA levels were adjusted according to total RNA content as measured by RIBOGREEN®. Results are presented as percent inhibition of Factor 7, relative to untreated control cells.
Cells were plated at a density of 4,000 cells per well and transfected using lipofectin reagent with 3.125 nM, 6.25 nM, 12.5 nM, 25 nM, 50 nM, and 100 nM concentrations of antisense oligonucleotide, as specified in Table 14. After a treatment period of approximately 16 hours, RNA was isolated from the cells and Factor 7 mRNA levels were measured by quantitative real-time PCR. Human Factor 7 primer probe set RTS 2927 was used to measure mRNA levels. Factor 7 mRNA levels were adjusted according to total RNA content, as measured by RIBOGREEN®. Results are presented as percent inhibition of Factor 7, relative to untreated control cells.

[3] = Table 1, 50 nM, relative to untreated control cells
[4] = 50 nM antisense oligonucleotide, Factor 7 mRNA by real-time RT-PCR (RTS 2927), relative to untreated control
[5] = oligonucleotides targeted to nucleobases 14707 to 14732 of SEQ ID NO: 1 (Table 11)

| Substance | % Inhibition (human Factor 7 mRNA [1]; [3]) | percent inhibition of Factor 7 (human Factor 7 mRNA [2]; Table 3, 3.125 nM) | percent inhibition of Factor 7 (human Factor 7 mRNA [2]; Table 3, 6.25 nM) | percent inhibition of Factor 7 (human Factor 7 mRNA [2]; Table 3, 12.5 nM) | percent inhibition of Factor 7 (human Factor 7 mRNA [2]; Table 3, 25.0 nM) | percent inhibition of Factor 7 (human Factor 7 mRNA [2]; Table 3, 50.0 nM) | percent inhibition of Factor 7 (human Factor 7 mRNA [2]; Table 3, 100.0 nM) | % Inhibition (human Factor 7 mRNA [1]; [4]) | % Inhibition (human Factor 7 mRNA levels) (human Factor 7 mRNA [1]; [5]) | % Inhibition (human Factor 7 mRNA levels) (human Factor 7 mRNA [1]; oligonucleotides targeted to nucleobases 15098 to 15122 of SEQ ID NO: 1 (Table 12)) | percent inhibition of Factor 7 (human Factor 7 mRNA [2]; Table 7, 6.25 nM) | percent inhibition of Factor 7 (human Factor 7 mRNA [2]; Table 7, 12.5 nM) | percent inhibition of Factor 7 (human Factor 7 mRNA [2]; Table 7, 25.0 nM) | percent inhibition of Factor 7 (human Factor 7 mRNA [2]; Table 7, 50.0 nM) | percent inhibition of Factor 7 (human Factor 7 mRNA [2]; Table 7, 100.0 nM) | % Inhibition (human Factor 7 mRNA levels) (human Factor 7 mRNA [1]; oligonucleotides targeted to nucleobases 13760 to 13789 of SEQ ID NO: 1 (Table 10)) |
| --- | --- | --- | --- | --- | --- | --- | --- | --- | --- | --- | --- | --- | --- | --- | --- | --- |
| 407594 (antisense e[5mC]*e[5mC]*eT*eG*e[5mC]*dA*dG*d[5mC]*d[5mC]*dA*dG*dG*d[5mC]*dA*dG*e[5mC]*e[5mC]*e[5mC]*eT*eG) [compound 407594] | 87% | 10% | 34% | 63% | 77% | 84% | 80% |  |  |  |  |  |  |  |  |  |
| 407606 (antisense e[5mC]*eT*eG*eG*eT*d[5mC]*d[5mC]*dT*dT*dG*d[5mC]*dA*dG*dG*dA*eG*e[5mC]*e[5mC]*e[5mC]*e[5mC]) [compound 407606] | 89% | 20% | 0% | 49% | 55% | 83% | 84% | 57% |  |  |  |  |  |  |  |  |
| 407641 (antisense e[5mC]*e[5mC]*eT*eG*eA*dG*dG*d[5mC]*d[5mC]*dA*dG*d[5mC]*dA*dG*dA*eT*e[5mC]*eA*e[5mC]*eG) [compound 407641] | 94% | 53% | 53% | 71% | 84% | 88% | 89% | 73% | 68% |  |  |  |  |  |  |  |
| 407643 (antisense e[5mC]*eA*e[5mC]*eA*e[5mC]*dA*dT*dG*dG*dA*dG*dT*d[5mC]*dA*dG*e[5mC]*eA*eT*e[5mC]*eG) [compound 407643] | 84% | 16% | 59% | 68% | 76% | 92% | 95% | 80% |  | 69% | 36% | 49% | 70% | 83% | 93% |  |
| 407900 (antisense e[5mC]*e[5mC]*e[5mC]*e[5mC]*eA*d[5mC]*dA*dA*dT*dT*d[5mC]*dG*dG*d[5mC]*d[5mC]*eT*eT*eG*eG*eG) [compound 407900] | 91% | 52% | 58% | 80% | 87% | 94% | 91% | 78% |  |  | 18% | 36% | 61% | 82% | 91% |  |
| 407910 (antisense eA*eG*eT*e[5mC]*e[5mC]*dT*dT*dG*d[5mC]*dT*dG*d[5mC]*d[5mC]*dA*dT*e[5mC]*e[5mC]*eG*eA*eG) [compound 407910] | 86% | 31% | 44% | 69% | 68% | 82% | 89% | 72% |  |  |  |  |  |  |  |  |
| 407936 (antisense eG*eG*e[5mC]*eA*eT*dT*d[5mC]*dG*d[5mC]*d[5mC]*dA*d[5mC]*d[5mC]*dA*dT*eG*e[5mC]*eA*eT*eG) [compound 407936] | 91% | 45% | 77% | 79% | 86% | 91% | 90% |  |  |  |  |  |  |  |  |  |
| 416438 (antisense e[5mC]*eA*eG*eG*eA*dG*d[5mC]*d[5mC]*d[5mC]*d[5mC]*d[5mC]*dA*dT*dT*d[5mC]*eT*eG*eG*e[5mC]*eA) [compound 416438] |  |  |  |  |  |  |  | 63% |  |  | 11% | 33% | 56% | 75% | 82% |  |
| 416446 (antisense eG*eG*eT*e[5mC]*eA*d[5mC]*dT*dG*d[5mC]*dA*dG*dT*dA*d[5mC]*dT*eG*e[5mC]*eT*e[5mC]*eA) [compound 416446] |  |  |  |  |  |  |  | 64% |  |  | 25% | 24% | 50% | 69% | 64% |  |
| 416449 (antisense eT*eA*eG*eG*eT*dA*dT*dT*dT*dT*dT*d[5mC]*d[5mC]*dA*d[5mC]*eA*eT*eG*eG*eA) [compound 416449] |  |  |  |  |  |  |  | 68% |  |  | 19% | 33% | 45% | 65% | 85% |  |
| 416455 (antisense e[5mC]*eG*e[5mC]*e[5mC]*eG*dG*d[5mC]*dT*d[5mC]*dT*dG*d[5mC]*dT*d[5mC]*dA*eT*e[5mC]*e[5mC]*e[5mC]*e[5mC]) [compound 416455] |  |  |  |  |  |  |  | 72% |  |  | 28% | 44% | 64% | 78% | 87% | 51% |
| 416472 (antisense e[5mC]*eA*eG*e[5mC]*e[5mC]*dT*dT*dG*dG*d[5mC]*dT*dT*dT*d[5mC]*dT*e[5mC]*eT*e[5mC]*e[5mC]*eA) [compound 416472] |  |  |  |  |  |  |  | 76% |  |  | 16% | 44% | 64% | 80% | 88% |  |
| 416477 (antisense e[5mC]*eA*eG*e[5mC]*e[5mC]*dT*dG*dA*dG*dG*d[5mC]*d[5mC]*dA*dG*d[5mC]*eA*eG*eA*eT*e[5mC]) [compound 416477] |  |  |  |  |  |  |  | 74% | 71% |  | 21% | 46% | 64% | 78% | 87% |  |
